Experimental data taken from patent US11154559B2, “Methods and compositions of bile acids” (The General Hospital Corporation, priority 2011, dated 2021).

Assay: Effect of subcutaneous TUDCA on weight gain and food intake in mice on a high-fat diet
Type: in vivo, C57BL/6J mice
Settings: 500 mg/kg s.c. twice a week vs placebo
Procedure: To examine the effect of circulating bile acids on body weight gain, C57BL/6J mice on a high-fat diet (HFD) were given subcutaneous injections of tauroursodeoxycholic acid (TUDCA, 500 mg/kg) or placebo for 10 weeks (N=6 per group). TUDCA was prepared daily in 0.15 M NaHCO3 (pH adjusted to 7.4). TUDCA or placebo (0.15 M NaHCO3, pH 7.4) was administered twice a week (Monday/Thursday) as 10 μl solution/g of body weight. Body weight (BW) was measured and recorded immediately before each injection and used to calculate the TUDCA or placebo dose to be administered.
Animals were 10 weeks of age at the start of the experiment (BW=32.6 g±2.6) and were on a […] from weaning that provided 60% of total energy as fat, 20% as carbohydrate, and 20% as protein (D12492 diet; Research Diets, New Brunswick, N.J.). Animals were individually housed on wire floors without bedding and maintained on a 12-hour light-dark cycle (lights on at 0700 hours) in a facility with an ambient temperature of 19-22° C.
Body weight was recorded twice a week, food intake was obtained weekly, and fasting blood glucose was measured every other week.

In the case of `C[C@H](CCC(=O)NCCS(=O)(=O)O)[C@H]1CC[C@H]2[C@@H]3[C@@H](O)C[C@@H]4C[C@H](O)CC[C@]4(C)[C@H]3CC[C@]12C` [TUDCA, tauroursodeoxycholic acid], the “percent weight change from baseline” value (high-fat diet, FIG. 35) is reported as “trend toward decreased weight”, the weight gain (high-fat diet, not statistically significant, FIG. 34) is reported as “trend towards decreased weight gain” and the weekly food intake (FIG. 36) is reported as “similar”. For the same compound, the cumulative food intake (FIG. 37) was “similar”.
